Data from patent US20230265068A1, “TRANSIENT RECEPTOR POTENTIAL CANONICAL 3 INHIBITORS AND METHODS OF USE THEREOF” (University of Tennessee Research Foundation, priority 2020, published 2023).

Key:
[1] = system: hippocampal neurons; assay: toxicity of compound alone in hippocampal neuronal culture; format: cell-based, rat; conditions: compound alone at different concentrations
Protocol: To explore the potential biological effects of compound 22 in a TRPC3 related disease model, its neuroprotective ability in primary cultured neurons (14 DIV prepared from E17 rats as described) was evaluated. The effects on neuron dendritic morphology were measured by imaging. Mature hippocampal neurons (DIV=14) were treated with CHO control medium, or naturally secreted Aβ-containing conditioned medium (7PA2), or in combination with compound 22 or Pyr3 at different concentrations, for 16 hours, followed by immunocytochemistry using an antibody against MAP2 and DAPI (data not shown). […] Hippocampal neurons (DIV=14) were treated with compound 22 or Pyr3 alone at different concentrations, followed by immunocytochemistry staining with MAP2 and DAPI (data not shown).

[2] = target: T1, hTRPM8 (Homo sapiens, UniProt Q7Z2W7); assay: whole-cell patch clamp selectivity, HEK 293 cells overexpressing hTRPM8; format: cell-based; conditions: HEK293, with agonist, solutions without Ca2+, read-out: % of the current of hTRPM8 inhibited
T1 construct: expressed in transfected cells; host or cells: HEK293, transient transfection, pMO vector
T1 sequence (Q7Z2W7 whole entry): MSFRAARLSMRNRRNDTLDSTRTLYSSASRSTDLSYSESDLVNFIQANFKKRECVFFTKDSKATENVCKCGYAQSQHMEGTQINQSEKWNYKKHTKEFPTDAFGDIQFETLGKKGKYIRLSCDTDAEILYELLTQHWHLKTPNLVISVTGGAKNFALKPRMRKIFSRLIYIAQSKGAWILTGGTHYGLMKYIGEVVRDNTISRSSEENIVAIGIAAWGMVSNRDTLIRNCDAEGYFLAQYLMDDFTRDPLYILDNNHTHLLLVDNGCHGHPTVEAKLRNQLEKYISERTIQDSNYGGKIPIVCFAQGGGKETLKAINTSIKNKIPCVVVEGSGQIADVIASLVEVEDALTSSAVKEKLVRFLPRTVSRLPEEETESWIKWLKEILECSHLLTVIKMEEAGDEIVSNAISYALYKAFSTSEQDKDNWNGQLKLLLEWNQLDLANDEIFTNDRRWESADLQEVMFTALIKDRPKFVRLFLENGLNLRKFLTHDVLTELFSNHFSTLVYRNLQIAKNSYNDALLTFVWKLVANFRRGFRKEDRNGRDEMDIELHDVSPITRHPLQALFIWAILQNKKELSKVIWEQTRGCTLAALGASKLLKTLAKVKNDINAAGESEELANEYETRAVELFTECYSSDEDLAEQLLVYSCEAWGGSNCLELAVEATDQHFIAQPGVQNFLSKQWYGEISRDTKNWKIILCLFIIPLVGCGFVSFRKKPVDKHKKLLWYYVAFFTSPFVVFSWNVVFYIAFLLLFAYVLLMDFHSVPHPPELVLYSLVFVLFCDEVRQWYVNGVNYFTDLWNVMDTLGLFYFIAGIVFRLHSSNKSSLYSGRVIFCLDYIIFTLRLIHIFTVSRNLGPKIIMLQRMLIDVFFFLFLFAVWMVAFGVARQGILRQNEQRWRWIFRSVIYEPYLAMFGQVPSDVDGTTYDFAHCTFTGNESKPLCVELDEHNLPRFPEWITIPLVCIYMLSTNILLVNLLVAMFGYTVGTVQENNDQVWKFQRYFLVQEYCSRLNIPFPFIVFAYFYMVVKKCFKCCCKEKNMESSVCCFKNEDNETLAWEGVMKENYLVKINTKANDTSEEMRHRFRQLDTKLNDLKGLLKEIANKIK
Protocol: (§1) Human embryonic kidney 293 (HEK293; catalog number CRL-1573) cells were cultured in Dulbecco's modified Eagle's medium (Invitrogen) supplemented with 10% fetal bovine serum and 1% penicillin-streptomycin at 37° C. and 5% CO2. Constructs cloned in pMO (a pcDNA3-modified vector) were co-transfected with GFP-pMO, using Lipofectamine 2000 (Invitrogen) according to the manufacturer's instructions. Macroscopic currents in the whole-cell patch clamp configuration were recorded 18-24 h post-transfection. The extracellular solution contained 140 mM NaCl, 6 mM KCl, 2 mM MgCl2, 10 mM HEPES, and 10 mM glucose (pH 7.4). Pipettes were made of borosilicate glass (outer diameter, 1.5 mm; inner diameter, 1.10 mm; Sutter Instruments) and fire-polished with a resistance between 2.8 and 4.0 megaohms when filled with an intracellular solution that contained 140 mM CsCl, 5 mM EGTA, and 10 mM HEPES, pH 7.2. Currents were recorded with a Multiclamp 700B amplifier (Molecular Devices) using a 1-s ramp from −100 to 100 mV. […] Data were acquired with a sampling rate of 20 kHz, low-pass filtered (10 kHz), and analyzed offline using Clampfit v10.4.2.0 (Molecular Devices). […]

[3] = metabolic stability in rat liver microsomes; format: in vitro ADME; conditions: rat, microsomes
Protocol: The metabolic stability of compound 22 was tested prior to the next phase of in vivo study. […] The maximum tolerated dose (MTD) study was subsequently performed to investigate its in vivo toxicity (FIGS. 4A and 4B). The second major limitation of Pyr3 is its toxicity due to its alkylating tail moiety. While replacing only the fast-metabolizing head ester group in Pyr3 with a stable amide (compound 79) improved metabolic stability, a single IP injection of compound 79 at 200 mg/kg killed all mice within 24 h.

[4] = target: T2, hTRPA1 (Homo sapiens, UniProt O75762); assay: whole-cell patch clamp selectivity, HEK 293 cells overexpressing hTRPA1; format: cell-based; conditions: HEK293, with agonist, solutions without Ca2+, read-out: % of the current of hTRPA1 inhibited
T2 construct: expressed in transfected cells; host or cells: HEK293, transient transfection, pMO vector
T2 sequence (O75762 whole entry): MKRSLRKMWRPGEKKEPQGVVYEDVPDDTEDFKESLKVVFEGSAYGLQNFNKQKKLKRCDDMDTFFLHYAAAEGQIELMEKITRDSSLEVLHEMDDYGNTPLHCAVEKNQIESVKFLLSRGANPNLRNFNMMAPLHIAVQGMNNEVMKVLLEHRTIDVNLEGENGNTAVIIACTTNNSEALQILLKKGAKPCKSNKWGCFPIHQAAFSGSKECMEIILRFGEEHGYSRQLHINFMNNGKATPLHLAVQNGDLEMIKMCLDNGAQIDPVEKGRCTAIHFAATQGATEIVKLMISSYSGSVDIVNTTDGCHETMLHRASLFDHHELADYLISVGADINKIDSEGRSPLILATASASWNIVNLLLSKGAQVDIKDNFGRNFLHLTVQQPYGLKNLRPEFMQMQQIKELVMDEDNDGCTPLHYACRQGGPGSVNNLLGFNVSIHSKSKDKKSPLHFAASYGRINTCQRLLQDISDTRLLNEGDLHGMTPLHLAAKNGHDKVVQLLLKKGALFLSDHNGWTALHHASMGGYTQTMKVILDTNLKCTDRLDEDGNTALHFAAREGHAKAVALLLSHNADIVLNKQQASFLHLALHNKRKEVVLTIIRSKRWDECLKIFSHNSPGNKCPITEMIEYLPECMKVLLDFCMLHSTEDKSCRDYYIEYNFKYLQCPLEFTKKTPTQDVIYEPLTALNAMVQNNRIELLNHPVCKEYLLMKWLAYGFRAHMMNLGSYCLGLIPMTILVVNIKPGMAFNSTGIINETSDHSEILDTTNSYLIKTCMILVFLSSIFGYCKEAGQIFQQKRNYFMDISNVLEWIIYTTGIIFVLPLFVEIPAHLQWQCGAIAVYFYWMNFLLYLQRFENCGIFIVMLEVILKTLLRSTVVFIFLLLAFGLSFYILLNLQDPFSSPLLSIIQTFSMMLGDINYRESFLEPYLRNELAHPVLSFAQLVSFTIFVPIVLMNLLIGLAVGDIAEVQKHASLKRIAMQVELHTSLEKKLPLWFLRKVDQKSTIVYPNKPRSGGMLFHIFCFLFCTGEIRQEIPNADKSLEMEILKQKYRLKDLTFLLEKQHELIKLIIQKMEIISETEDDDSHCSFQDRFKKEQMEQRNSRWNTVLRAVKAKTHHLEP
Protocol: as §1

[5] = brain permeability and half-life after systemic administration in C57BL/6 mice; format: in vivo
Protocol: The brain permeability of compound 22 was evaluated with systemic administration (20 mg/kg, i.v.) in C57BL/6 mice. Blood samples were collected at nine time points after compound administration: 5 min, 15 min, 30 min, 1 hr, 2 hr, 4 hr, 8 hr, 16 hr, and 24 hr. Brain homogenates were then extracted and analyzed for concentrations of compound 22 by liquid chromatography-mass spectrometry (LC-MS). The half-life (T½) in the brain was calculated by GraphPad Prism software.

Question: What does the source list for `CCNC(=O)c1cnn(-c2ccc(-n3ccc(Cl)c(Cl)c3=O)cc2)c1C(F)(F)F` [Compound 22]?
Answer: toxicity in neuronal culture [1]: lack of toxicity; inhibition at 10 µM [2]: < 5%; half-life [3]: > 4 h; inhibition at 10 µM [4]: < 5%; Kp at 1 h ([5]; C57BL/6, mouse, brain/plasma, iv, 20 mg/kg, i.v., 1 h after injection, read-out: brain-to-plasma ratio): ~0.15; half-life ([5]; C57BL/6, mouse, plasma, iv, 20 mg/kg, i.v., read-out: plasma T½ (converted)): ~4 h; duration of brain concentration above TRPC3 IC50 ([5]; one-dose injection): 18 to 20 h
